Data taken from patent US6465494B1, “Methods for treatment of cystic fibrosis” (Cell Pathways, Inc., priority 2001, dated 2002).
Entries after “also recorded” stand apart in the source; their conditions may differ. Where a name gives a salt, the structure may show the parent alone.

Columns and labels:
U937 cells = experiment: apoptosis induction of U937 cells (active caspase 3 immunofluorescence); format: cell-based; details: 1 μM, 24 hours, hydrochloride
Experimental: The U937 monocyte cell line was derived from a histocytic lymphoma and can be driven to differentiate into an ‘activated macrophage like’ state by treatment with 5nM phorbal ester (TPA). Treated U937 cells become adherent, increase their cytoplasmic volume and express macrophage-specific cell surface markers. The presence and level of PDE2 and 5 mRNA in both differentiated and non-differentiated U937 cells was confirmed by performing RT-PCR experiments on total RNA.
U937 cells (from ATCC Rockville, Md.) were grown in RPMI media supplemented with 5% FCS, glutamine, antibiotic/antimycotic and sodium pyruvate. Total RNA was isolated from two U937 cultures, one treated with 5nM TPA for 48 hours and one grown in normal media as listed above, using the Rouche High Pure RNA Isolation Kit (cat# 1 828 665) as per manufacturers protocol. cDNA was then synthesized from the total RNA using GibcoBRL Superscriptll (Cat # 18064-022) reverse transcriptase as per manufacturers protocol. The resulting cDNA was used as a template for RT-PCR reactions using primer sets specific for PDE2 (forward: […], reverse: […]) or PDE5 (forward: […], reverse: […]). mRNA for PDE2 and 5 were both present in the untreated U937 cells. Upon treatment with TPA, the relative amounts of PDE2 mRNA increased 5 fold. Therefore, U937 cells treated with TPA and driven to differentiate into an activated macrophage like state have elevated levels of PDE2 mRNA (see FIG. 1).
The presence of PDE2 and PDE5 protein within U937 cells was confirmed by indirect immunofluorescence (IIF). U937 cells were cultured as above. Two U937 cultures, one grown in the presence of 5 nM TPA for 48 hours and one grown in normal media were processed. All cultures were collected by centrifugation (Shandon Cytospin, 2 minutes @ 600 rpm) onto poly-L lysine-coated slides and immediately fixed in fresh 3% paraformaldehyde buffered in PBS for 10 minutes. Adherent cultures were grown on coverslips and fixed as above. […]
The level of apoptosis in U937 cells was quantified by scoring 500 consecutive cells for the presence of active caspase 3. […]

PDE4 = experiment: PDE inhibition, similar protocols: PDE4; format: biochemical
[1] = single, escalating dose human clinical safety study; format: in vivo; details: oral, 50 mg BID, 100 mg BID, 200 mg BID and 400 mg BID
[2] = 91-day oral study in dogs; format: in vivo

Compound: CC1=C(CC(=O)NCc2ccccc2)c2cc(F)ccc2/C1=C\c1ccncc1 [Example 38, (Z)-5-fluoro-2-methyl-(4-pyridylidene)-3-(N-benzyl)indenylacetamide hydrochloride]
- induction of apoptosis (active caspase 3) (U937 cells): undergoing apoptosis as reflected by the presence of active caspase 3; also recorded: causes the induction of apoptosis in the differentiated and non-differentiated U937 cell line
- IC50 (PDE4): 6 µM
- side effects [1]: no significant side effects at any dose
- tolerability ([2]; 91 days): well tolerated
- feces observation ([2]; 91 days, 150 and 300 mg/kg/day): Orange discoloration of the feces
- body weights ([2]; 91 days, highest dose group): Slightly lowered body weights
- liver weights ([2]; 91 days, highest dose group): increased liver weights
- microscopic alterations of liver ([2]; 91 days, highest dose group): no microscopic alterations
- toxicological effects overall ([2]; oral, 91 consecutive days, 50, 150 and 300 mg/kg/day): no toxicological effects
